Patent publication US12310946B2, “Pharmaceutical composition for oral administration of edaravone and method of administering same” (MITSUBISHI TANABE PHARMA CORPORATION, priority 2020, dated 2025)
Where two headings read alike, the source gives them in different places.

How the values were obtained:
[1] = Clinical study #4: PK of edaravone oral formulation (formula #2), high-fat meal 1 hour after administration vs fasted; assay type: in vivo, human; conditions: 100 mg oral; for partial AUC / AUC(0-inf) / Cmax / Tmax / half-life: male, human, plasma, po, 100 mg; for AUC(0-inf) / Cmax / Tmax / half-life: mean (n = 9)
Procedure: Effects of meal consumption 1 hour after administration of the edaravone oral formulation on the pharmacokinetics of edaravone were evaluated. Specifically, a clinical study #4 described below was conducted on the same subjects in Japanese healthy adult male subjects. In the clinical study #4, the edaravone oral formulation of the formula #2 in Table 1 above was used and administered orally once during the study period. In addition, the same high-fat meal as that used in Example 1 above was used.
As a post-administration consumption group, the same subjects in fasted conditions after a lapse of 10 hours or longer from meal consumption were orally administered with the edaravone oral formulation, and the high-fat meal was consumed 1 hour after the administration. Blood samples were each collected before the administration, and 5 minutes, 15 minutes, 30 minutes, 1 hour, 1.5 hours, 2 hours, 4 hours, 6 hours, 8 hours, 12 hours, 24 hours, 36 hours, and 48 hours after the administration, and the concentrations of unchanged edaravone in plasma were measured. The consumption of the high-fat meal 1 hour after the administration was carried out after the blood sample collection 1 hour after the administration, and a subsequent meal was not consumed until the blood sample collection 4 hours after the administration was completed. On the other hand, as a fasted group for reference, the edaravone oral formulation was administered orally to the same subjects in fasted conditions, blood samples were collected, and the concentrations of unchanged edaravone in plasma were measured in the same manner.
In addition, the AUC0-∞ after the administration of the edaravone oral formulation was evaluated separately on the results from 0 hour to 1 hour after the administration (0 to 1 h, before the consumption of a meal resumed after the administration) (AUC0-1h) and the results 1 hour after the administration (1 h to ∞ h, after the consumption of a meal resumed after the administration) (AUC1h-∞) for the post-administration consumption group (1 h before high-fat meal) and the fasted group (Fasted).

[2] = Clinical studies #7 and #8: edaravone oral dose vs AUC (4-parameter logistic model) compared with 60-mg intravenous administration; assay type: in vivo; conditions: human, plasma; approved 60-mg edaravone intravenous administration formulation (60 mg/60 min)
Procedure: Specifically, clinical studies #7 and #8 described below were conducted in healthy adult male subjects for each subject group. In clinical studies #7 and #8, one dose each of edaravone oral formulations (edaravone suspensions) of formulas #7 and #8 shown in Table 11 below were used respectively and administered orally once during the study period.
Any of the edaravone oral formulations (formula #7) with an edaravone content of 30 mg, 60 mg, 120 mg, 200 mg, or 300 mg was administered orally to subjects in fasted conditions after a lapse of 10 hours or longer from consumption of a meal. The edaravone oral formulations with each content were each administered orally to 6 subjects. Blood samples were each collected before the administration, and 15 minutes, 30 minutes, 1 hour, 1.5 hours, 2 hours, 4 hours, 6 hours, 8 hours, 12 hours, 24 hours, 36 hours, and 48 hours after the administration, the concentrations of unchanged edaravone were measured, and the AUCs were calculated.
The edaravone oral formulations (formula #8) with an edaravone content of 100 mg was administered orally to 9 subjects in fasted conditions after a lapse of 10 hours or longer from consumption of a meal. […]

[3] = Clinical study #11: PK of edaravone oral formulation (formula #3) via nasopharyngeal gastric tube vs oral in healthy adults; assay type: in vivo, human; conditions: for AUC(0-inf) / Cmax / AUC / half-life / Tmax: human, plasma; for AUC(0-inf) / Cmax: 105 mg; for Tmax: read-out: tmax (median)
Procedure: Pharmacokinetics of edaravone in administration of the edaravone oral formulation via a PEG tube was evaluated in 36 healthy adults. Specifically, performing gastrostomy in healthy adults is difficult, thus a nasopharyngeal gastric tube (NG tube), which allows the administration into the stomach via a tube in the same manner, was used as a model of administration via a percutaneous endoscopic gastrostomy tube (PEG tube), and a clinical study #11 described below was conducted.
The edaravone oral formulation (#3) was administered via a nasopharyngeal gastric tube (NG tube) to the subject group in fasted conditions after a lapse of 10 hours or longer from consumption of a meal. In the administration via an NG tube, first, 100 mL of lukewarm water was injected through an NG tube 1 hour before the administration of the edaravone oral formulation, and 10 mL of lukewarm water was injected through an NG tube immediately before the administration. Then, the edaravone oral formulation was administered to the NG tube, and further 30 mL of water was injected through the NG tube to wash in the edaravone oral formulation. Blood samples were each collected before the administration, and 5 minutes, 15 minutes, 30 minutes, 45 minutes, 1 hour, 1.5 hours, 2 hours, 4 hours, 6 hours, 8 hours, 10 hours, 12 hours, 24 hours, 36 hours, and 48 hours after the administration, and the concentrations of unchanged edaravone in plasma were measured. As a reference example, the same edaravone oral formulation was administered orally to the same subjects, blood samples were collected, and the concentrations of unchanged edaravone in plasma were measured in the same manner. For the oral administration, the edaravone oral formulation was administered orally after a lapse of 10 hours or longer from the previous meal consumption. None of the subjects consumed a next meal until the blood sample collection 4 hours after the administration was completed. In addition, results of an analysis of variance conducted on the AUC and Cmax in consideration of the meal condition are shown in Table 14 below.

[4] = Caco-2 cell monolayer membrane permeability test; conditions: human, Caco-2, pH 7.4
Procedure: (§1) Caco-2 cells were seeded on a 24-well plate, cultured at 37° C. for 21 to 23 days in a CO2 incubator, and then a Caco-2 cell monolayer membrane permeability test was conducted. After checking the membrane resistance value of the cell layer after the culture, the culture medium in the plate was replaced with HBSS (pH 7.4). […] For the control compounds, [^3H]propranolol as a high membrane permeability control and [^14C]mannitol as a low membrane permeability control were used.

Caco-2 cells = assay: Caco-2 cell monolayer membrane permeability test
Procedure: as §1

[5] = 1 h before high-fat meal vs fasted
[6] = high-fat meal 1 hour after administration vs fasted
[7] = formula #2, 1 h before high-fat meal
[8] = Nasopharyngeal gastric tube / Oral, least squares mean ratio
[9] = other: nasopharyngeal gastric tube (NG tube), formula #3 (105 mg), Nasopharyngeal gastric tube, fasted (N = 36), mean
[10] = formula #3 (105 mg), Oral, fasted (N = 36), mean

## CC1=NN(c2ccccc2)C(=O)C1 [Edaravone, 3-methyl-1-phenyl-2-pyrazolin-5-one]
[1]; [5]
  change in the AUC0-1h in comparison with fasted: slight decrease
  change in the AUC1h-∞ in comparison with fasted: no change
  change in the AUC in comparison with fasted: →
  change in the Cmax in comparison with fasted: →
[1]; [6]
  decrease in the AUC in comparison with the fasted group: about 10.4%
  decrease in the Cmax in comparison with the fasted group: about 17.0%
[1]; 1 h before high-fat meal (n = 9), read-out: AUC0-1h
  partial AUC: 772 ± 519 ng·h/mL
[1]; 1 h before high-fat meal (n = 9), read-out: AUC1h-∞
  partial AUC: 703 ± 202 ng·h/mL
[1]; fasted (n = 9), read-out: AUC0-1h
  partial AUC: 890 ± 349 ng·h/mL
[1]; fasted (n = 9), read-out: AUC1h-∞
  partial AUC: 756 ± 232 ng·h/mL
[1]; [7]
  AUC(0-inf): 1480 ng·h/mL
  Cmax: 1500 ng/mL
  Tmax: 0.6 h
  half-life: 9.65 h
[1]; formula #2, fasted
  AUC(0-inf): 1650 ng·h/mL
  Cmax: 1810 ng/mL
  Tmax: 0.36 h
  half-life: 9.33 h
[2]
  AUC: 1740 ng·h/mL
[3]; [8]
  AUC0-∞ Ratio: 0.981
  Cmax Ratio: 1.052
[3]; other: nasopharyngeal gastric tube (NG tube), Nasopharyngeal gastric tube, analysis of variance, read-out: AUC0-∞ Least-square mean
  AUC(0-inf): 2500 ng·h/mL
[3]; other: nasopharyngeal gastric tube (NG tube), Nasopharyngeal gastric tube, analysis of variance, read-out: Cmax Least-square mean
  Cmax: 2430 ng/mL
[3]; other: nasopharyngeal gastric tube (NG tube), formula #3 (105 mg), Nasopharyngeal gastric tube, fasted (N = 36), mean, read-out: AUC0-∞
  AUC(0-inf): 2620 ng·h/mL
[3]; other: nasopharyngeal gastric tube (NG tube), formula #3 (105 mg), Nasopharyngeal gastric tube, fasted (N = 36), mean, read-out: Cmax
  Cmax: 2780 ng/mL
[3]; [9]
  AUC: 2590 ng·h/mL
  half-life: 13.5 h
[3]; other: nasopharyngeal gastric tube (NG tube), formula #3 (105 mg), Nasopharyngeal gastric tube, fasted (N = 36)
  Tmax: 0.25 h
[3]; po, Oral, analysis of variance, read-out: AUC0-∞ Least-square mean
  AUC(0-inf): 2550 ng·h/mL
[3]; po, Oral, analysis of variance, read-out: Cmax Least-square mean
  Cmax: 2310 ng/mL
[3]; po, formula #3 (105 mg), Oral, fasted (N = 36), mean, read-out: AUC0-∞
  AUC(0-inf): 2660 ng·h/mL
[3]; po, formula #3 (105 mg), Oral, fasted (N = 36), mean, read-out: Cmax
  Cmax: 2470 ng/mL
[3]; [10]
  AUC: 2610 ng·h/mL
  half-life: 21.5 h
[3]; formula #3 (105 mg), Oral, fasted (N = 36)
  Tmax: 0.5 h
[4]
  Papp A→B at 2 h, 100 μmol/L: 32 ± 1.7 ×10⁻⁶ cm/s
Caco-2 cells; Caco-2, vs propranolol
  membrane permeability relative to high permeability control: equal to or higher than that of propranolol
Caco-2 cells; based on Caco-2 membrane permeability test
  permeability classification under Biopharmaceutics Classification System: high permeability compound
